US20200023003A1 (FENNEC PHARMACEUTICALS INC., priority 2018, published 2020)
Values joined by “and” are separate entries in the source; they are usually repeats but may differ in a detail not shown here. Identical values can stand only once. Like-named read-outs stand apart in the source and are kept apart here.

What was measured:
[1] = for Cisplatin Concentration: 24° C.
Description: The method uses a Waters Acquity H-Class HPLC system with an Imtakt Scherzo SW-C18 mixed mode column. The HPLC method conditions are outlined in Table 7. […] This range covers greater than two orders of magnitude at dose-relevant concentrations.
Each sample was transferred to an HPLC vial and placed in an autosampler chamber held at 24° C. Samples were injected onto the HPLC system approximately every 30 minutes to obtain 4 time-points for each sample. A gradient was run and the retention time and peak area were obtained.

[2] = system: pediatric patients being treated with platinum based chemotherapeutics
From the text: Reference is made to International Patent Application Publication No. WO 2019/108592, which is a continuation of U.S. patent application Ser. No. 15/826,243, filed on Nov. 29, 2017, both of which are incorporated by reference herein in their entirety.

[3] = system: pediatric patients being treated with a platinum based chemotherapeutic
From the text: These adverse events comprise grade 3 or grade 4 neutropenia, reduced glomerular filtration rates, increased serum creatinine, infection, hypomagnesemia, hypernatremia, vomiting, or nausea.

[4] = animals
[5] = cited from earlier work
[6] = system: small cell lung cancer cell cultures; settings: cited from earlier work
[7] = Dynamic vapor sorption (DVS) isotherm; settings: for DVS weight loss upon desorption: hysteresis observed
[8] = From the text: It is a white to off-white crystalline solid, that is soluble in water, but insoluble in alcohol. The aqueous solution is practically neutral with a pH ranging from 6.5 to 9.0. The molecular formula is Na2S2O3. It has a molecular weight of 158.11 g/mol. The structural formula is: […]
[9] = thiosulfate:cisplatin 5:1 (n = 2)
[10] = thiosulfate:cisplatin 6:1 (n = 2)
[11] = thiosulfate:cisplatin 10:1 (n = 2)

Sodium thiosulfate [STS]
Half-life (time to reach 333/2 μM cisplatin) [1, 9]: 3.3 h | Slope (linear regression of cisplatin conc. vs. time) [1, 9]: −0.80 Cisplatin Area/min | Cisplatin Concentration ([1]; thiosulfate:cisplatin 5:1, 4 min): 323.7 µM | Cisplatin Concentration ([1]; thiosulfate:cisplatin 5:1, 37 min): 294.2 µM and 294.0 µM | Cisplatin Concentration ([1]; thiosulfate:cisplatin 5:1, 70 min): 266.8 µM and 268.0 µM | Cisplatin Concentration ([1]; thiosulfate:cisplatin 5:1, 103 min): 243.7 µM and 245.3 µM | Half-life (time to reach 333/2 μM cisplatin) [1, 10]: 3.07 h | Slope (linear regression of cisplatin conc. vs. time) [1, 10]: −0.87 Cisplatin Area/min | Cisplatin Concentration ([1]; thiosulfate:cisplatin 6:1, 5 min): 325.4 µM and 324.5 µM | Cisplatin Concentration ([1]; thiosulfate:cisplatin 6:1, 38 min): 286.4 µM and 293.2 µM | Cisplatin Concentration ([1]; thiosulfate:cisplatin 6:1, 71 min): 259.8 µM and 266.2 µM | Cisplatin Concentration ([1]; thiosulfate:cisplatin 6:1, 104 min): 235.6 µM and 240.5 µM | Half-life (time to reach 333/2 μM cisplatin) [1, 11]: 2.27 h | Slope (linear regression of cisplatin conc. vs. time) [1, 11]: −1.13 Cisplatin Area/min | Cisplatin Concentration ([1]; thiosulfate:cisplatin 10:1, 4 min): 319.5 µM | Cisplatin Concentration ([1]; thiosulfate:cisplatin 10:1, 5 min): 320.3 µM | Cisplatin Concentration ([1]; thiosulfate:cisplatin 10:1, 37 min): 269.4 µM | Cisplatin Concentration ([1]; thiosulfate:cisplatin 10:1, 38 min): 278.5 µM | Cisplatin Concentration ([1]; thiosulfate:cisplatin 10:1, 70 min): 235.2 µM | Cisplatin Concentration ([1]; thiosulfate:cisplatin 10:1, 71 min): 239.6 µM | Cisplatin Concentration ([1]; thiosulfate:cisplatin 10:1, 103 min): 205.6 µM | Cisplatin Concentration ([1]; thiosulfate:cisplatin 10:1, 104 min): 209.3 µM | ototoxicity in pediatric patients ([2]; STS after a platinum based chemotherapeutic (e.g., cisplatin)): significantly reduced ototoxicity | hearing protection ([2]; dose equivalent to 5.1 g/m^2 sodium thiosulfate for injection, preliminary clinical studies): did not show hearing protection | prevention of ototoxicity ([2]; doses equivalent to 6.4 to 12.8 g/m^2 sodium thiosulfate for injection): prevented ototoxicity | survival ([2]; treatment 6 hours after completion of each CIS infusion): did not affect survival | serum sodium levels ([3]; doses of STS equivalent to 12.8 g/m^2 sodium thiosulfate for injection): small, transient increase | renal or other toxicities ([3]; pediatric patients treated with a platinum based chemotherapeutic): not exacerbate renal or other toxicities | distribution to the cochlea [4]: distribute to the cochlea | biological half-life, range ([5]; dependent on dose): 16.5-182 minutes | biological half-life ([5]; following IV administration): 0.65 hours | excreted in the urine unmodified ([5]; following IV administration): Up to 95% | effect of STS on cytotoxicity of etoposide ([6]; immediate or delayed addition of STS, incubation for 72 hours): no reduction of cytotoxicity | effect of STS on anti-tumor activity of doxorubicin, carmustine (BCNU), paclitaxel, or methotrexate ([6]; similar studies): no reduction of anti-tumor activity

O.O.O.O.O.O=S([O-])([O-])=S.[Na+].[Na+] [sodium thiosulfate pentahydrate]
DVS weight loss upon desorption [7]: 51% | DVS weight loss upon drying ([7]; drying): 27% | DVS weight gain upon sorption [7]: 81%

O=S([O-])([O-])=S.[Na+].[Na+] [anhydrous sodium thiosulfate, Sodium thiosulfate anhydrous]
solubility in alcohol ([8]; alcohol): insoluble | solubility in water ([8]; water): soluble | DVS weight change upon equilibration to 0% relative humidity ([7]; 0% relative humidity): minimal weight change | DVS weight loss upon desorption [7]: 51% | DVS weight gain upon sorption [7]: 165%
